Results as given in US10487068B2, “Pyridazine derivatives as RORc modulators” (Genentech, Inc., priority 2015, dated 2019).

What follows are compounds tested against T1, RORc ligand binding domain (Homo sapiens, UniProt P51449) (assay: In Vitro RORc Ligand Binding Assay). Details: RORc IC50, radioligand 25-[3H]hydroxycholesterol 6 nM; 0.6 ug/mL RORc receptor; 3 h at 25° C.
T1 sequence (P51449 269-508 limits assumed): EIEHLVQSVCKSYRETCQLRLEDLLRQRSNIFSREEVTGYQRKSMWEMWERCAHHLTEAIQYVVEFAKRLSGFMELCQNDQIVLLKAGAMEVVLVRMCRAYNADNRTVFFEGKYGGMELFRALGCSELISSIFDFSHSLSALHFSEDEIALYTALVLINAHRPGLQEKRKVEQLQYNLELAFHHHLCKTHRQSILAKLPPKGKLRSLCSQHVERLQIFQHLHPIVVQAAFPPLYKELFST

| Compound | IC50 |
| --- | --- |
| CC1(C)[C@H]2CC[C@]1(c1cccc(C(O)CO)n1)c1nnc(-c3c(F)cccc3F)cc12 (stereo partly drawn) [Example 237, 1-(6-((5R,8S)-3-(2,6-difluorophenyl)-9,9-dimethyl-5,6,7,8-tetrahydro-5,8-methanocinnolin-8-yl)pyridin-2-yl)ethane-1,2-diol] | 2.6 nM |
| CC1(C)[C@H]2CC[C@]1(c1ccnc(-n3cc(CO)cn3)n1)c1nnc(-c3c(F)cccc3F)cc12 [Example 238] | 39.4 nM |
| CC(C)(O)c1cn(-c2nccc([C@@]34CC[C@@H](c5cc(-c6c(F)cccc6F)nnc53)C4(C)C)n2)cn1 [Example 239] | 13.9 nM |
| CC(C)(O)c1coc(-c2cccc([C@@]34CC[C@@H](c5cc(-c6c(F)cccc6F)nnc53)C4(C)C)n2)n1 [Example 240, 2-(2-(6-((5R,8S)-3-(2,6-difluorophenyl)-9,9-dimethyl-5,6,7,8-tetrahydro-5,8-methanocinnolin-8-yl)pyridin-2-yl)oxazol-4-yl)propan-2-ol] | 4.5 nM |
| Cc1cc(-c2ccnc([C@@]34CC[C@@H](c5cc(-c6c(F)cccc6F)nnc53)C4(C)C)n2)on1 [Example 241, 5-(2-((5R,8R)-3-(2,6-difluorophenyl)-9,9-dimethyl-5,6,7,8-tetrahydro-5,8-methanocinnolin-8-yl)pyrimidin-4-yl)-3-methylisoxazole] | 11 nM |
| CC1(C)[C@H]2CC[C@]1(c1c(Br)cnc(C#N)c1F)c1nnc(-c3c(F)cccc3F)cc12 [Example 242, 5-bromo-4-((5R,8S)-3-(2,6-difluorophenyl)-9,9-dimethyl-5,6,7,8-tetrahydro-5,8-methanocinnolin-8-yl)-3-fluoropicolinonitrile] | 5 nM |
| CC1(C)[C@H]2CC[C@]1(c1cncc(-n3cc(CO)cn3)n1)c1nnc(-c3c(F)cccc3F)cc12 [Example 243, (1-(6-((5R,8S)-3-(2,6-difluorophenyl)-9,9-dimethyl-5,6,7,8-tetrahydro-5,8-methanocinnolin-8-yl)pyrazin-2-yl)-1H-pyrazol-4-yl)methanol] | 11.7 nM |
| CC1(C)[C@H]2CC[C@]1(c1cc(-c3c[nH]c(=O)[nH]3)ccn1)c1nnc(-c3c(F)cccc3F)cc12 [Example 244] | 120 nM |
| CC1(C)[C@@H]2CC[C@@]1(c1nc(C#N)ncc1Cl)c1nnc(-c3c(F)cccc3F)cc12 [Example 245] | 26.4 nM |
| CC1(C)[C@H]2CC[C@]1(c1cncc(-c3ccn[nH]3)n1)c1nnc(-c3c(F)cccc3F)cc12 [Example 246] | 8.4 nM |
| CC(C)(O)c1cc(-c2cncc([C@@]34CC[C@@H](c5cc(-c6c(F)cccc6F)nnc53)C4(C)C)n2)[nH]n1 [Example 247, 2-(5-(6-((5R,8S)-3-(2,6-difluorophenyl)-9,9-dimethyl-5,6,7,8-tetrahydro-5,8-methanocinnolin-8-yl)pyrazin-2-yl)-1H-pyrazol-3-yl)propan-2-ol] | 20 nM |
| CC(C)(O)c1noc(-c2cncc([C@@]34CC[C@@H](c5cc(-c6c(F)cccc6F)nnc53)C4(C)C)n2)n1 [Example 248, 2-(5-(6-((5R,8S)-3-(2,6-difluorophenyl)-9,9-dimethyl-5,6,7,8-tetrahydro-5,8-methanocinnolin-8-yl)pyrazin-2-yl)-1,2,4-oxadiazol-3-yl)propan-2-ol] | 27 nM |
| CC(C)(O)c1nnc(-c2ncc(Cl)c([C@@]34CC[C@@H](c5cc(-c6c(F)cccc6F)nnc53)C4(C)C)n2)[nH]1 [Example 249] | 50.1 nM |
| CC1(C)[C@H]2CC[C@]1(c1nc(C(N)=O)ncc1F)c1nnc(-c3c(F)cccc3F)cc12 [Example 250] | 22.8 nM |
| CC1(C)[C@H]2CC[C@]1(c1ccnc(-c3ccn[nH]3)n1)c1nnc(-c3c(F)cccc3F)cc12 [Example 251] | 9.8 nM |
| CC1(C)[C@H]2CC[C@]1(c1ccnc(-n3ccc(CO)n3)n1)c1nnc(-c3c(F)cccc3F)cc12 [Example 252] | 19.3 nM |
| CC1(C)[C@H]2CC[C@]1(c1ccnc(-c3cn[nH]c3)n1)c1nnc(-c3c(F)cccc3F)cc12 [Example 253] | 5.7 nM |
| CC1(C)[C@H]2CC[C@]1(c1ccnc(-c3cccnc3)n1)c1nnc(-c3c(F)cccc3F)cc12 [Example 254] | 4.4 nM |
| Cc1ncn(-c2cncc([C@@]34CC[C@@H](c5cc(-c6c(F)cccc6F)nnc53)C4(C)C)n2)n1 [Example 255] | 8.6 nM |
| CC(C)(O)c1nc(-c2cncc([C@@]34CC[C@@H](c5cc(-c6c(F)cccc6F)nnc53)C4(C)C)n2)no1 [Example 256, 2-(3-(6-((5R,8S)-3-(2,6-difluorophenyl)-9,9-dimethyl-5,6,7,8-tetrahydro-5,8-methanocinnolin-8-yl)pyrazin-2-yl)-1,2,4-oxadiazol-5-yl)propan-2-ol] | 10.1 nM |
| C[C@H](O)c1nnc(-c2ncc(F)c([C@@]34CC[C@@H](c5cc(-c6c(F)cccc6F)nnc53)C4(C)C)n2)[nH]1 [Example 257] | 22.6 nM |

| Compound | IC50 |
| --- | --- |
| C[C@@H](O)c1nnc(-c2ncc(F)c([C@@]34CC[C@@H](c5cc(-c6c(F)cccc6F)nnc53)C4(C)C)n2)[nH]1 [Example 258] | 21.6 nM |
| CC(C)(O)c1cc(-c2cncc([C@@]34CC[C@@H](c5cc(-c6c(F)cccc6F)nnc53)C4(C)C)n2)no1 [Example 259, 2-(3-(6-((5R,8S)-3-(2,6-difluorophenyl)-9,9-dimethyl-5,6,7,8-tetrahydro-5,8-methanocinnolin-8-yl)pyrazin-2-yl)isoxazol-5-yl)propan-2-ol] | 8.7 nM |
| CC(C)(O)c1nnc(-c2cncc([C@@]34CC[C@@H](c5cc(-c6c(F)cccc6F)nnc53)C4(C)C)n2)o1 [Example 260, 2-(5-(6-((5R,8S)-3-(2,6-difluorophenyl)-9,9-dimethyl-5,6,7,8-tetrahydro-5,8-methanocinnolin-8-yl)pyrazin-2-yl)-1,3,4-oxadiazol-2-yl)propan-2-ol] | 12.4 nM |
| CC1(C)[C@H]2CC[C@]1(c1ccnc(-n3cnc(C(N)=O)c3)n1)c1nnc(-c3c(F)cccc3F)cc12 [Example 261] | 11.7 nM |
| CC(C)(O)c1nnc(-c2nccc([C@@]34CC[C@@H](c5cc(-c6c(F)cccc6F)nnc53)C4(C)C)n2)[nH]1 [Example 262] | 37.4 nM |
| C[C@H](O)c1nnc(-c2nccc([C@@]34CC[C@@H](c5cc(-c6c(F)cccc6F)nnc53)C4(C)C)n2)[nH]1 [Example 263] | 20.8 nM |
| C[C@@H](O)c1nnc(-c2nccc([C@@]34CC[C@@H](c5cc(-c6c(F)cccc6F)nnc53)C4(C)C)n2)[nH]1 [Example 264] | 32.3 nM |
| Cc1cc(-c2ccnc([C@@]34CC[C@@H](c5cc(-c6c(F)cccc6F)nnc53)C4(C)C)n2)no1 [Example 266, 3-(2-((5R,8R)-3-(2,6-difluorophenyl)-9,9-dimethyl-5,6,7,8-tetrahydro-5,8-methanocinnolin-8-yl)pyrimidin-4-yl)-5-methylisoxazole] | 4.3 nM |
| Cc1ncn(-c2ncc(F)c([C@@]34CC[C@@H](c5cc(-c6c(F)cccc6F)nnc53)C4(C)C)n2)n1 [Example 267] | 17.3 nM |
| CC1(C)[C@H]2CC[C@]1(c1nc(N)ncc1F)c1nnc(-c3c(F)cccc3F)cc12 [Example 268] | 3.3 nM |
| CC(C)(O)c1cc(-c2cncc([C@@]34CC[C@@H](c5cc(-c6c(F)cccc6F)nnc53)C4(C)C)n2)on1 [Example 269, 2-(5-(6-((5R,8S)-3-(2,6-difluorophenyl)-9,9-dimethyl-5,6,7,8-tetrahydro-5,8-methanocinnolin-8-yl)pyrazin-2-yl)isoxazol-3-yl)propan-2-ol] | 3 nM |
| Cc1ncn(-c2cccc([C@@]34CC[C@@H](c5cc(-c6c(F)cccc6F)nnc53)C4(C)C)n2)n1 [Example 270] | 1.9 nM |
| CC1(C)[C@H]2CC[C@]1(c1ccnc(-n3cnc(C(F)(F)F)n3)n1)c1nnc(-c3c(F)cccc3F)cc12 [Example 271] | 4.4 nM |
| CC(C)c1ncn(-c2nccc([C@@]34CC[C@@H](c5cc(-c6c(F)cccc6F)nnc53)C4(C)C)n2)n1 [Example 273] | 5.2 nM |
| CC1(C)[C@H]2CC[C@]1(c1ccnc(-n3cnc(C4CC4)n3)n1)c1nnc(-c3c(F)cccc3F)cc12 [Example 274] | 2 nM |
| Cc1nc(-c2ccnc([C@@]34CC[C@@H](c5cc(-c6c(F)cccc6F)nnc53)C4(C)C)n2)co1 [Example 275, 4-(2-((5R,8R)-3-(2,6-difluorophenyl)-9,9-dimethyl-5,6,7,8-tetrahydro-5,8-methanocinnolin-8-yl)pyrimidin-4-yl)-2-methyloxazole] | 10.3 nM |
| CC(C)(O)c1ncn(-c2nccc([C@@]34CC[C@@H](c5cc(-c6c(F)cccc6F)nnc53)C4(C)C)n2)n1 [Example 276] | 15.5 nM |
| CNC(=O)c1nc(-c2ncc(F)c([C@@]34CC[C@@H](c5cc(-c6c(F)cccc6F)nnc53)C4(C)C)n2)no1 [Example 277] | 12.4 nM |
| CC[C@@H](O)c1n[nH]c(-c2cncc([C@@]34CC[C@@H](c5cc(-c6c(F)cccc6F)nnc53)C4(C)C)n2)n1 [Example 278, (R)-1-(5-(6-((5R,8S)-3-(2,6-difluorophenyl)-9,9-dimethyl-5,6,7,8-tetrahydro-5,8-methanocinnolin-8-yl)pyrazin-2-yl)-1H-1,2,4-triazol-3-yl)propan-1-ol] | 6.8 nM |
| C[C@@H](O)Cc1n[nH]c(-c2cncc([C@@]34CC[C@@H](c5cc(-c6c(F)cccc6F)nnc53)C4(C)C)n2)n1 [Example 279, (R)-1-(5-(6-((5R,8S)-3-(2,6-difluorophenyl)-9,9-dimethyl-5,6,7,8-tetrahydro-5,8-methanocinnolin-8-yl)pyrazin-2-yl)-1H-1,2,4-triazol-3-yl)propan-2-ol] | 12.6 nM |
| CC(C)(O)c1c[nH]c(-c2cncc([C@@]34CC[C@@H](c5cc(-c6c(F)cccc6F)nnc53)C4(C)C)n2)n1 [Example 280, 2-(2-(6-((5R,8S)-3-(2,6-difluorophenyl)-9,9-dimethyl-5,6,7,8-tetrahydro-5,8-methanocinnolin-8-yl)pyrazin-2-yl)-1H-imidazol-4-yl)propan-2-ol] | 13.6 nM |
